Structures can show the parent of a compound that is named as a salt. Where two headings read alike, the source gives them in different places.
Tests used:
[1] = Peripheral vasodilator activity, anesthetized dog, femoral arterial circulation; format: in vivo; conditions: 30 μg/kg injected directly
Experimental: The peripheral vasodilator activity was measured on anesthetized dog at the level of femoral arterial circulation. To this end, the femoral artery the collaterals of which have been ligated is perfused at constant rate with blood taken from aorta. The perfusion pressure measured at the level of the femoral artery thus varies as a function of the resistance of the perfused area. The tested products and the corresponding solvents are directly injected at the dose of 30 μg/kg. The cardiac output being maintained constant, a vasodilation is thus measured by a decrease of the perfusion pressure. The latter is scored in comparison with the action of papaverine, considered as a reference and injected one time by group of 4 products. When interesting, the products are tested with other doses under the same conditions.
The vasodilator activity is appreciated as follows: […]

[2] = Antihypertensive activity, oral, unanesthetized spontaneously hypertensive rats; format: in vivo
Experimental: […] Only rats having a systolic pressure of 180 to 220 mm Hg are used. Two rats are used by product. The treatments are administered without the knowledge of the person making the measure.
The antihypertensive effects were recorded according to a score followed by an index. The scoring system is as follows.
The index is calculated by multiplying the systolic pressure difference (cmHg) measured every 30 minutes after the treatment, by a coefficient of 1 to 6 corresponding to times of 30 to 180 minutes.

[3] = system: isolated guinea pig auricles; assay: Chronotrope effect of the substance on isolated auricles; conditions: 10^-6 M, 20 minutes, Tyrode, 29° C.
Experimental: The β-lytic effect was searched on the chronotropic response to noradrenaline of isolated guinea pig auricles. Auricles were incubated for 20 minutes in a Tyrode solution at 29° C. in the presence of the substance to be tested at the concentration of 10^-6 M. A positive (+) or negative (-) chronotrope effect of the substance was noted using the following scores: […]

[4] = system: chronotropic response to noradrenaline of isolated guinea pig auricles; assay: β-lytic effect on the chronotropic response to noradrenaline of isolated auricles
Experimental: The β-lytic effect was searched on the chronotropic response to noradrenaline of isolated guinea pig auricles. Auricles were incubated for 20 minutes in a Tyrode solution at 29° C. in the presence of the substance to be tested at the concentration of 10^-6 M. A positive (+) or negative (-) chronotrope effect of the substance was noted using the following scores:
Then, the chronotrope effect of cumulative increasing concentrations of noradrenaline was recorded. The pD2 (-log CE50) value was calculated. A score of β-lytic activity of the substance was given as follows:
If the score at concentration of 10^-6 M was 3 or 4, the effect of the substance was examined at concentration of 10^-7 M and a score was recorded according to the same procedure.

[5] = system: guinea pig ileum contractions induced by acetylcholine; assay: Antispasmodic activity against ileum contractions induced by acetylcholine
Experimental: (§1) The antispasmodic activity of the studied substances was examined against guinea pig ileum contractions induced by histamine and acetylcholine.
(§2) These experiences allow to make it obvious an antihistaminic, anticholinergic or musculotrope activity. The response to the contracting agent (sub-maximum concentration) is obtained every 5 minutes before and after injection of increasing concentrations of tested products (10^-7 M to 10^-4 M). The inhibition percentage under the influence of tested products is calculated and the theoretical concentration giving 50% of inhibition is graphically determined for each experience. These values are expressed in -log CI50 (M).

[6] = system: guinea pig ileum contractions induced by histamine; assay: Antispasmodic activity against ileum contractions induced by histamine
Experimental: as §1, §2

[7] = system: β1 cardiac receptors versus β2 tracheal receptors; assay: Cardioselectivity (auricles versus trachea); design: species or system guinea pig; conditions: from difference of pA2 on auricles and trachea
Experimental: (§3) The effect on β1 cardiac receptors is measured by inhibition of the chronotropic response to noradrenaline of guinea pig auricles and of the inotrope response to isoproterenol of guinea pig left auricles which were electrically stimulated. The cardioselectivity is appreciated by measuring the antagonist effect at the level of β2 receptors of the guinea pig trachea. To this end, a tracheal chain is contracted by a maximum concentration of histamine and inhibition of relaxation by isoproterenol is measured. The values calculated for cardioselectivity are obtained by considering the difference between pA2 values of the chronotrope response and the relaxation on the one hand (1st column) and of the inotrope response and relaxation on the other hand (2nd column). For these various experiences, pA2 is calculated according to the Van Rossum method (Arch. Inern. Pharmacodyn., 143, 299-330, 1963).

[8] = LD50 in mice, oral (Lichtfield and Wilcoxon method); format: in vivo
Experimental: LD50 were determined according to the Lichtfield and Wilcoxon method (J. Pharmacol. Exp. Ther. 96, 99, 1949) and expressed in mg/kg. The products were administered to mice orally.

β1 cardiac receptors [9] = target: T1, β1 cardiac receptors (Cavia porcellus, UniProt H0W3H1); assay: β-lytic activity: inhibition of chronotropic response to noradrenaline of auricles (pA2); design: species or system guinea pig
T1 construct: chronotropic response to noradrenaline of guinea pig auricles; from tissue; host or cells: guinea pig auricles (chronotropic response); electrically stimulated guinea pig left auricles (inotropic response)
Experimental: as §3, with “column).” for “column). For these various experiences, pA2 is calculated according to the Van Rossum method (Arch. Inern. Pharmacodyn., 143, 299-330, 1963).”

β1 cardiac receptors [10] = target: T1, β1 cardiac receptors; assay: β-lytic activity: inhibition of inotrope response to isoproterenol of electrically stimulated left auricles (pA2); design: species or system guinea pig
Experimental: as §3, with “column).” for “column). For these various experiences, pA2 is calculated according to the Van Rossum method (Arch. Inern. Pharmacodyn., 143, 299-330, 1963).”

[11] = 60 mg/kg oral, spontaneously hypertensive rats
[12] = 60 mg/kg oral, systolic pressure difference (cmHg) every 30 min multiplied by time coefficient 1 to 6
[13] = mouse, in vivo, po, read-out: LD50

T1 sequence (H0W3H1 1-470): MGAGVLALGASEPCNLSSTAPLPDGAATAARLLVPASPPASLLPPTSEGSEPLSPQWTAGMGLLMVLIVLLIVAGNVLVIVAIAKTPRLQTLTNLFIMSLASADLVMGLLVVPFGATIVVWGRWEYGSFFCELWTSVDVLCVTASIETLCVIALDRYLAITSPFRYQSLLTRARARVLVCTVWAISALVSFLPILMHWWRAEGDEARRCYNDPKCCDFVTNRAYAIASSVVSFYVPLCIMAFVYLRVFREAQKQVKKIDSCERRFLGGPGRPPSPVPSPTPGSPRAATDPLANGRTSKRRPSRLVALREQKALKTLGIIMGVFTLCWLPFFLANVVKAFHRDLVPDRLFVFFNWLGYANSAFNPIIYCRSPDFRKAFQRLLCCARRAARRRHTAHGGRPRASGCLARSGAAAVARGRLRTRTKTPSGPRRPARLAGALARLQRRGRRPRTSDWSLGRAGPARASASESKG

## OC(CNCCCCSc1ccccc1)COc1ccc(-c2nc3ccccc3[nH]2)cc1 (centres unmarked) [Compound 23]
[1]
  Peripheral vasodilator activity: active
[2]; [11]
  Antihypertensive activity (score): 0 (reduction <10 mm Hg)
[3]
  Chronotrope effect (score): 0 (if the frequency modification was comprised between +6 and -6)
[4]; 10^-6 M
  β-lytic effect (score): 0 (if pD2 ≥6.81)
[5]
  Antispasmodic activity, Ac. Chol. (-log CI50 (M)): 5,74 -log CI50 (M)
[6]
  Antispasmodic activity, Hist. (-log CI50 (M)): 6,05 -log CI50 (M)

## COCCc1ccc(OCC(O)CNC(C)C)cc1 (centres unmarked) [Metroprolol, reference compound]
[7]
  times more active on β cardiac receptors than on β2 receptors: 65 times

## CC(CCc1ccccc1)NCC(O)COc1ccc(-c2nc3ccccc3[nH]2)cc1 (centres unmarked) [Compound 7]
[1]
  Peripheral vasodilator activity: active
[2]; [11]
  Antihypertensive activity (score): + (reduction of 10 to 20 mm Hg)
[2]; [12]
  Antihypertensive activity (index): 18
[3]
  Chronotrope effect (score): 0 (if the frequency modification was comprised between +6 and -6)
[4]; 10^-6 M
  β-lytic effect (score): 0 (if pD2 ≥6.81)
[8]; [13]
  LD50: > 3000 mg/kg
[5]
  Antispasmodic activity, Ac. Chol. (-log CI50 (M)): 6.23 -log CI50 (M)
[6]
  Antispasmodic activity, Hist. (-log CI50 (M)): 6.25 -log CI50 (M)

## OC(CNCCOc1ccccc1)COc1ccc(-c2nc3ccccc3[nH]2)cc1 (centres unmarked) [Compound 3, 2-{4-[3-(2-phenoxyethylamino)-2-hydroxypropoxy]phenyl}benzimidazole]
[1]
  Peripheral vasodilator activity: active
[2]; [11]
  Antihypertensive activity (score): +++ (reduction of 30 to 50 mm Hg)
[2]; [12]
  Antihypertensive activity (index): 50
[3]
  Chronotrope effect (score): 0 (if the frequency modification was comprised between +6 and -6)
[4]; 10^-6 M
  β-lytic effect (score): 2 (if 6.40≥pD2 ≥6.01)
[8]; [13]
  LD50: > 3000 mg/kg
[5]
  Antispasmodic activity, Ac. Chol. (-log CI50 (M)): 6.43 -log CI50 (M)
[6]
  Antispasmodic activity, Hist. (-log CI50 (M)): 6.52 -log CI50 (M)

## Cc1ccc2[nH]c(-c3ccc(OCC(O)CNC(C)C)cc3)nc2c1 (centres unmarked) [Compound 14, 2-[4-(3-isopropylamino-2-hydroxypropoxy)phenyl]-5(6)-methylbenzimidazole (hydrochloride)]
[2]; [11]
  Antihypertensive activity (score): ++++ (reduction>50 mm Hg)
[2]; [12]
  Antihypertensive activity (index): 83
[3]
  Chronotrope effect (score): 1
[4]; 10^-6 M
  β-lytic effect (score): 4 (if pD2 ≤5.50)
[4]; 10^-7 M
  β-lytic effect (score): 2 (if 6.40≥pD2 ≥6.01)
[8]; [13]
  LD50: 1450 mg/kg
[5]
  Antispasmodic activity, Ac. Chol. (-log CI50 (M)): 5.10 -log CI50 (M)
[6]
  Antispasmodic activity, Hist. (-log CI50 (M)): 4.85 -log CI50 (M)

## Cc1cc2nc(-c3ccc(OCC(O)CNC(C)C)cc3)[nH]c2cc1C (centres unmarked) [Compound 15]
[2]; [11]
  Antihypertensive activity (score): ++++ (reduction>50 mm Hg)
[2]; [12]
  Antihypertensive activity (index): 110
[3]
  Chronotrope effect (score): 0 (if the frequency modification was comprised between +6 and -6)
[4]; 10^-6 M
  β-lytic effect (score): 3 (if 6.00≥pD2 ≥5.51)
[4]; 10^-7 M
  β-lytic effect (score): 1 (if 6.80≥pD2 ≥6.41)
[8]; [13]
  LD50: 1450 mg/kg
[5]
  Antispasmodic activity, Ac. Chol. (-log CI50 (M)): 5.38 -log CI50 (M)
[6]
  Antispasmodic activity, Hist. (-log CI50 (M)): 5.45 -log CI50 (M)

## OC(CNCCCCc1ccccc1)COc1ccc(-c2nc3ccccc3[nH]2)cc1 (centres unmarked) [Compound 6]
[1]
  Peripheral vasodilator activity: active
[2]; [11]
  Antihypertensive activity (score): 0 (reduction <10 mm Hg)
[3]
  Chronotrope effect (score): -1
[4]; 10^-6 M
  β-lytic effect (score): 0 (if pD2 ≥6.81)
[8]; [13]
  LD50: > 3000 mg/kg
[5]
  Antispasmodic activity, Ac. Chol. (-log CI50 (M)): 7.12 -log CI50 (M)
[6]
  Antispasmodic activity, Hist. (-log CI50 (M)): 6.89 -log CI50 (M)

## CC(C)(C)NCC(O)COc1ccc(-c2nc3ccccc3[nH]2)cc1 (centres unmarked) [Compound 4, 2-[4-(3-t-butylamino-2-hydroxypropoxy)phenyl]benzimidazole]
[2]; [11]
  Antihypertensive activity (score): ++++ (reduction>50 mm Hg)
[2]; [12]
  Antihypertensive activity (index): 192
[3]
  Chronotrope effect (score): 0 (if the frequency modification was comprised between +6 and -6)
[4]; 10^-6 M
  β-lytic effect (score): 3 (if 6.00≥pD2 ≥5.51)
[4]; 10^-7 M
  β-lytic effect (score): 1 (if 6.80≥pD2 ≥6.41)
[8]; [13]
  LD50: 1420 mg/kg
[5]
  Antispasmodic activity, Ac. Chol. (-log CI50 (M)): 5.72 -log CI50 (M)
[6]
  Antispasmodic activity, Hist. (-log CI50 (M)): 5.64 -log CI50 (M)

## CC(C)NCC(O)COc1ccc(CC(N)=O)cc1 (centres unmarked) [Atenolol, reference compound]
[7]
  times more active on β cardiac receptors than on β2 receptors: 50 times
β1 cardiac receptors [9]
  Kb: 0.0447 µM
β1 cardiac receptors [10]
  Kb: 0.129 µM

## CC(C)NCC(O)COc1ccc(-c2nc3ccccc3[nH]2)cc1 (centres unmarked) [Compound 9, 2-[4-(3-isopropylamino-2-hydroxypropoxy)phenyl]benzimidazole]
[2]; at 10 mg, oral
  Antihypertensive activity (index): 68
  Antihypertensive activity (score): +++ (reduction of 30 to 50 mm Hg)
[3]
  Chronotrope effect (score): 0 (if the frequency modification was comprised between +6 and -6)
[4]; 10^-6 M
  β-lytic effect (score): 4 (if pD2 ≤5.50)
[8]
  LD50: 2620 mg/kg
[5]
  Antispasmodic activity, Ac. Chol. (-log CI50 (M)): 4.60 -log CI50 (M)
[6]
  Antispasmodic activity, Hist. (-log CI50 (M)): 4.75 -log CI50 (M)

## CC(C)NCC(O)COc1ccc(-c2nc3ccccc3[nH]2)cc1 (centres unmarked) [Compound 10, 2-[4-(3-isopropylamino-2-hydroxypropoxy)phenyl]benzimidazole]
[2]; at 10 mg, oral
  Antihypertensive activity (index): 61
  Antihypertensive activity (score): +++ (reduction of 30 to 50 mm Hg)
[3]
  Chronotrope effect (score): 0 (if the frequency modification was comprised between +6 and -6)
[4]; 10^-6 M
  β-lytic effect (score): 4 (if pD2 ≤5.50)
[8]
  LD50: 1960 mg/kg
[5]
  Antispasmodic activity, Ac. Chol. (-log CI50 (M)): 4.95 -log CI50 (M)
[6]
  Antispasmodic activity, Hist. (-log CI50 (M)): 4.31 -log CI50 (M)

From patent US4338330A, “Benzimidazole derivatives, their use, and compositions containing these derivatives” (Continental Pharma, priority 1979, dated 1982)
